Literature values, collected in patent US20060024740A1 (priority 2002, published 2006).

What was measured:
Tapesia yallundae = system: Tapesia yallundae; parameters: key: S = Sensitive; R = Resistant
Tapesia acuformis = system: Tapesia acuformis; parameters: key: S = Sensitive; R = Resistant

COC(=O)Nc1nc2ccccc2[nH]1 [Carbendazim, carbendazim]
Fungicide Sensitivity (Tapesia yallundae): R | Fungicide Sensitivity (Tapesia acuformis): S and R

Cc1cc(C2CC2)nc(Nc2ccccc2)n1 [Cyprodinil]
Fungicide Sensitivity (Tapesia yallundae): S | Fungicide Sensitivity (Tapesia acuformis): S

CCCN(CCOc1c(Cl)cc(Cl)cc1Cl)C(=O)n1ccnc1 [Prochloraz]
Fungicide Sensitivity (Tapesia yallundae): R and S | Fungicide Sensitivity (Tapesia acuformis): S and R

CC(C)(C)C(O)C(Oc1ccc(Cl)cc1)n1cncn1 (centres unmarked) [Triadimenol, triadimenol]
Fungicide Sensitivity (Tapesia yallundae): R and S | Fungicide Sensitivity (Tapesia acuformis): R
